In a melting point compilation (Tetko et al.; mined from patent text by program, amines drawn as free bases though some values may be those of a salt):

Row | melting point [°C] | SMILES
1 | 69 to 72 | CCC(=CC(COC(N)=O)=NO)C(C)[N+](=O)[O-] (stereo not given)
2 | 150 to 152 | CN(C)C(=N)Nc1ccccc1-c1ccc(Cl)cc1
3 | 238 to 242 | Cc1cn(C2CC(O)C(C#N)(CO)O2)c(=O)[nH]c1=O (stereo not given)
4 | 145 to 147 | CCSc1ccc(-c2ccncc2)c2c1C(=O)CC(C)C2 (stereo not given)
5 | 98 to 99 | ClCc1ccc(OCc2csc(-c3ccccc3)n2)cc1
6 | 95 to 96 | CCOC(=O)c1cnn(-c2ccc(OCC(C)(C)C(=O)OC)c(C#N)c2)c1
7 | 228 | O=C1Cc2ccccc2Oc2ccc(CC(O)(P(=O)(O)O)P(=O)(O)O)cc21
8 | 54 to 56 | CCCCCCCCCCCCCCCCCCOC(=O)C(N)Cc1ccc(N)cc1 (stereo not given)
9 | 134 to 135 | CS(=O)(=O)c1ccc(-c2sc(-c3ccccc3Cl)nc2-c2cccc(F)c2)cc1
10 | 194 | OC(c1ccc(F)cc1)(c1ncc[nH]1)c1ccc(Cl)cc1Cl (stereo not given)
11 | 167 to 168 | CCOC(=O)N(CC(=O)O)C(=O)c1c(Br)ccc2c(C(F)(F)F)c(OC)ccc12
12 | 153 to 155 | CC(C)(C)OC(=O)c1ccc(C=NON)cc1
13 | 192 to 193 | S=C(Nc1ccc(Br)cn1)N[C@@H]1C[C@@H]1c1ccccc1
14 | 75 to 77 | O=C(Oc1ccccc1OC(=O)c1ccccc1)c1ccccc1
15 | 47 to 49 | COC(=O)CCC/C=C\CN1C(=O)c2ccccc2C1=O
16 | 64.5 to 66 | CCCCCCCCCCCCCCCCCC1CC(OC(=O)c2ccccc2)C(CC)C(=O)O1 (racemic)
17 | 226 | Nc1ccc(C2=NNC(=O)CC2)cc1N
18 | 195 to 197 | CCOP(=O)(CC(=O)N1c2ccccc2NC(=O)c2ccccc21)OCC
19 | 250 | Cc1nc2nc(/C=C3/C(=O)N4C(C(=O)O)=CS[C@H]34)nn2c2c1CCCC2
20 | 149 | Cn1ccnc1-c1ccccc1Nc1nc(Nc2ccc3c(c2)CCC(=O)CC3)ncc1Cl
21 | 122 to 124 | CCC(O/N=C(\C(=O)O)c1csc(N)n1)C(=O)OC(C)(C)C (stereo not given)
22 | 74 to 75 | COC(=O)Cc1cc(OCc2ccccc2)ccc1OC
23 | 184 | Nc1ccc(OCc2ccccc2)cc1N
24 | 91.5 to 92.5 | CCOc1nc(Cc2ccc(Cl)cc2)nc(O)c1NC(=O)c1ccco1
25 | 142 to 143 | O=C1c2cccc(F)c2C(=O)N1CCN1CCC(c2noc3cc(F)ccc23)CC1

Row | melting point [°C] | SMILES
26 | 111 to 117 | CS(=O)(=O)c1ccc(-c2cnn(-c3ccc(F)cc3)c(=O)c2OCCC2CC2)cc1
27 | 74 to 76 | Cc1ccc(C[C@@H]2CN(C(=O)/C=C/c3ccc(C(F)(F)F)cc3)CCN2C(=O)c2cc(C(F)(F)F)cc(C(F)(F)F)c2)cc1C
28 | 131 to 133 | CCn1c2ccccc2c2cc(/C=C(\C#N)c3cccnc3)ccc21
29 | 136 to 138 | Cc1cccc(NC(c2ccc(C(F)(F)F)cc2)c2ccc3cccnc3c2O)n1 (stereo not given)
30 | 175 | O=C1c2ccccc2CN1CCN1CCC(Cc2c[nH]c3ccc(F)cc23)CC1
31 | 53 to 55 | CC(=CN(C)C)C(=O)c1cccc(C(F)(F)F)c1
32 | 184 to 185 | C=CCN(C(=O)C(C#N)=CNC(=N)N1CC(C)(C)NC1=O)c1cccc(C(F)(F)F)c1
33 | 86 to 87 | CN(C)c1cccc(S(=O)Nc2ccccc2)c1 (stereo not given)
34 | 116 to 118 | CCC(CC)CC(=N)NC(=S)Nc1ccc(Cl)cc1
35 | 129 to 131 | O=C(CCCCC1CCN(Cc2ccccc2)CC1)c1ccc(N2CCCC2)cc1
36 | > 300 | Cn1c(NN)nc2ccc(O)cc2c1=O
37 | 225 to 226 | Cc1ccc2c(c1C)C(=O)C(=O)N2
38 | 213 to 214 | Cc1ccc(C(=O)NCCCCN2CCN(C(c3ccccc3)c3ccccc3)CC2)c(O)n1
39 | 188 to 189 | O=C(O)c1cccc2c1CCc1ccccc1C2=O
40 | 110 to 112 | CCCCC(=O)Nc1cc(C(=O)N2CCOCC2)ccn1
41 | 100 to 104 | CCN(CC)CCCNc1ncc2cc(-c3c(Cl)cccc3Cl)c(N=CN(C)C)nc2n1
42 | 64 to 67 | O=C(CP(=O)(O)CCCCc1ccccc1)OCc1ccccc1
43 | 221 | COC(=O)c1ccc(O)c(O)c1O
44 | 145 to 146 | CCOC(=O)Cc1cccc(-c2nc(COc3ccc(COc4nn(-c5ccccc5)cc4C=O)cc3OC)c(C)o2)c1
45 | 58 to 59 | CCCCCCCCC(=S)n1c(-c2cscn2)nc2ccccc21
46 | 60 to 61 | COC(=O)CCCCCc1nn(-c2ccc([N+](=O)[O-])cc2)c2c1CCCC2
47 | 232 to 234 | O=c1[nH]c(CCN2CCN(c3ccccc3)CC2)c(-c2ccc(F)cc2)[nH]1
48 | 134 to 135 | CS(=O)c1nnc(-c2ccc3occ(-c4ccc(OC(F)(F)F)cc4)c3c2)o1 (stereo not given)
49 | 98 to 101 | O=C(CN1CN(OC(F)(F)F)C=N1)c1ccccc1
50 | > 240 | CC(C)S(=O)c1ccc2[nH]nc(Nc3nccs3)c2c1 (stereo not given)

Row | melting point [°C] | SMILES
51 | 112 to 115 | CCCc1c(OCCCCC(C)(C)c2nnn[nH]2)ccc(C(C)=O)c1O
52 | 143 to 144 | COc1ccc(-c2cnc3ccc(-c4nnc(SCc5cccc(C#N)c5)o4)cn23)cc1
53 | 77 to 78 | O=S(=O)(c1ccc(N2CCNCC2)cc1)n1ccc2cc(F)ccc21
54 | 98 to 99 | Sc1nc(CCCc2cc(Cl)cc(Cl)c2)c[nH]1
55 | 94.5 to 95.5 | O=C1c2cc(C(=O)N3CCCCC3)ccc2-c2ccc(C(=O)N3CCCCC3)cc21
56 | > 275 | CCC(=O)N[C@@H](CC)c1nc2c(C(F)(F)F)cccc2c(O)c1C(=O)Nc1nccs1
57 | 137 to 145 | COc1cc(C)nc(NC(=O)NS(=O)(=O)c2cccc(NC(=O)NC(C)(C)C)c2)n1
58 | 132 to 134 | CCCCn1c(C)c(C(=O)Nc2c(CC)cccc2CC)c(=O)c(Br)c1CC
59 | 71.4 to 72.1 | CCCCC1CCC(CC(=O)c2ccc(-c3ccc(CC(C)CC)cc3F)cc2)CC1 (single isomer, unassigned; (+))
60 | 126 to 128 | C[C@H](C#Cc1ccc(CCc2ccc(F)cc2)s1)N(O)C(N)=O
61 | 230 to 240 | CC1(C)CCC(=O)Nc2cc(Nc3ncc4cc5ccccc5n4n3)ccc21
62 | 291 to 293 | O=C1N=NC(=O)c2c1[nH]c1cc(C(F)(F)F)ccc21
63 | 42 to 43.5 | CCCN(CCC)c1c([N+](=O)[O-])cc(C)c(C)c1[N+](=O)[O-]
64 | 257 to 258 | O=C(Cc1cccc2ccccc12)N[C@H]1C[C@H](C(=O)O)Nc2cc(Cl)cc(Cl)c21 (relative stereo)
65 | 85 to 86 | CC(C)(C)NCC(O)COC(=O)c1ccc(OCc2ccccc2)c(OCc2ccccc2)c1 (stereo not given)
66 | 210 | COc1ccc(-c2c[nH]c(=O)nc2C)cc1
67 | 235 to 240 | CC(=O)Nc1ccc(C=CC2=NNC(=O)SC2)cc1
68 | 182 | COc1ccc(CN(C)CCc2ccc(NC(=O)c3cccc4c(=O)c5ccccc5n(C)c34)cc2)cc1OC
69 | 132 to 133 | N=C(Nc1ccc(C2CCCC2)c(CN2CCC[C@H]2CO)c1)c1cccs1
70 | 100 to 105 | CCCN(CCC)C(N)=C(C#N)C#N
71 | 104 to 106 | CN(C)OC(=O)c1c(O)cccc1Cl
72 | 275 to 281 | Cc1[nH]n(Cc2ccc([N+](=O)[O-])cc2)c2nc(-c3ccncc3)nc(=O)c1-2
73 | 111 to 112 | CN(Cc1ccc([N+](=O)[O-])cc1)Cc1nc(-c2cc(C(C)(C)C)c(O)c(C(C)(C)C)c2)cs1
74 | 110 to 111 | CC(C)(O)CCCCCc1ccc(CCc2ccc(O)c(CO)c2)cc1
75 | < 50 | COC(=O)C1=C(C)NC(C)=C(C(=O)OCCCOc2ccc(CCO)cc2)C1c1cccc([N+](=O)[O-])c1 (stereo not given)

Row | melting point [°C] | SMILES
76 | 197 to 198 | O=[N+]([O-])c1ccc(S(=O)(=O)Nc2ccc(O)cc2)cc1
77 | 196 to 198 | O=C(O)C1CCc2c(c3cccc(Br)c3n2C(=O)c2ccccc2)C1 (stereo not given)
78 | 122 to 124 | COC(=O)c1ccccc1NC(=O)c1ccc(OC)cc1
79 | 103 to 105 | CCCc1cc(Cl)c2oc(C(=O)c3ccc(OC)cc3)c(C)c2c1O
80 | 67 to 68 | CC(C)C(=O)C[C@@H](O)C(=O)O
81 | 138 | Cc1cccc(C)c1NC(=O)CSc1cc(C(C)(C)C)c(O)c(C(C)(C)C)c1
82 | 126 | O=C(Oc1ccc(Cl)cc1)n1c2c(c(=O)n(C3CCCCO3)c1=O)CCC2 (stereo not given)
83 | 245 to 247 | O=C(c1ccccc1)c1cc2ccncc2[nH]1
84 | 185 to 186 | CCCN(CCC)[C@H]1Cc2c[nH]c3ccc(-c4cccnc4)c(c23)C1
85 | 220 | CC12CCC(C(=O)O)=CC1=CCC1C2CCC2(C)C(C(=O)CCc3ccc(F)cc3)CCC12 (stereo not given)
86 | 155 to 156 | Cc1cc(Cl)ccc1NC(=N)Nc1ncccc1OCc1c(F)cccc1Cl
87 | 142 to 143 | CSc1cc(C(F)(F)F)nn1-c1ccc(NC(=O)c2ccncc2F)cc1
88 | 213 to 214 | CSc1ccc(C2=NNC(=O)CC2c2ccccc2)cc1 (stereo not given)
89 | 197 to 199 | O=c1[nH]nc(-c2ccc3ccccc3c2)o1
90 | 113 to 114 | CCN(CC)c1nc(Cl)nc2c(Cl)ncnc12
91 | 182 to 184 | O=Cc1c2ccccc2c(CO)c2ccccc12
92 | 230 to 232 | O=C(Nc1ccc2c(c1)CCN(Cc1ccccc1)C2)c1ccccc1-c1ccc(C(F)(F)F)cc1
93 | 115 to 118 | CN(C)S(=O)(=O)C=C(C(=O)C1CCCCC1)c1cccc([N+](=O)[O-])c1
94 | 49 to 51 | CCOC(=O)c1c(C(F)(F)F)nc(C(F)(F)F)c(C)c1OC(C)=O
95 | 131 to 132 | CCOC(=O)c1cc(Cl)c2cccc(OC)c2n1
96 | 122 to 123 | CCCc1nccn1NCc1cc(C(C)(C)C)c(O)c(C(C)(C)C)c1
97 | 136 to 137 | CCC(CCCN)Nc1cc(OC)c(OC)c2c(C)ccnc12 (stereo not given)

Row | SMILES | melting point [°C]
98 | Cc1ccc(-c2ccnc3c(C(=O)c4cccs4)cnn23)cc1NC(=O)OC(C)C | 198 to 200
99 | C=CCn1c(SCCF)n[nH]c1=O | 65
100 | COc1cc2c(CSCCN3CC=C(c4ccccc4)CC3)c[nH]c2cc1C(=O)O | 168 to 171
